The assay concerns the target APSR (Mycobacterium tuberculosis, UniProt P9WIK3). As to the kind of experiment: standard radioactive assay measuring APSR reduction of 35S-labeled APS substrate. It counts as biochemical, M. tuberculosis. The following applies: for inhibition at 100 µM: read-out: inhibition of APSR activity, tested at 100 μM.

APSR, sequence (P9WIK3 whole entry): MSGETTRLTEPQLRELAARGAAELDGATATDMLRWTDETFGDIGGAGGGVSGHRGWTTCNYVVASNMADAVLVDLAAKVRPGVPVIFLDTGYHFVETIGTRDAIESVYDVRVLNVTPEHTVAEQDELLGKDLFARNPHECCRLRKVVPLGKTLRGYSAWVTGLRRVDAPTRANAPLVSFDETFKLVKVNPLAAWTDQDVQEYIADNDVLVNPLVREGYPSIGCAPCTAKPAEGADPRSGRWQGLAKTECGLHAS

On to `O=C1c2ccccc2-c2ccc([N+](=O)[O-])cc21` [2-nitro-9-fluorenone], for which the “activity against APSR (in words)” value is “neither 9-fluorenone nor 2-nitro-9-fluorenone, which are closely related to 133896, exhibited significant activity”.
Consider `O=C1c2ccccc2-c2ccccc21` [9-fluorenone], for which the “activity against APSR (in words)” value is “neither 9-fluorenone nor 2-nitro-9-fluorenone, which are closely related to 133896, exhibited significant activity”.
With `O=C1c2ccccc2-c2cc([N+](=O)[O-])c([N+](=O)[O-])cc21` [NSC 133896], the inhibition at 100 µM is over 50%.
Turning to `O=C(O)CCc1nnc2c3ccccc3c3ccccc3c2n1` [NSC 327704], the inhibition at 100 µM is over 50%.

By inhibition is commonly meant the percentage by which the read-out fell short of the control.

The values above are taken from publication PMC2639213 (Journal of medicinal chemistry, 2008).
